Assay results: PMC3302206 (Biochemistry, 2012)
Values after ≈ are worked out from the molar mass of the structure shown. Ends that are not written are not given here.

Legend:
E. coli DC2 = type: cell-based, Escherichia coli; settings: DC2, 16 h
E. coli K12 = type: cell-based, Escherichia coli; settings: wild type strain; broth microdilution, measured as described (ref 18 protocol)
[1] = test system: wild type S. aureus Rosenbach strain; type: cell-based, Staphylococcus aureus; settings: 16 h
S. aureus mprF mutant [2] = type: cell-based, Staphylococcus aureus; settings: for MIC, S. aureus mprF mutant, −C: absence of carbonate; for MIC, S. aureus mprF mutant, +C: physiological concentration of carbonate present
wild type S. aureus = type: cell-based, Staphylococcus aureus
S. aureus mprF mutant [3] = type: cell-based, Staphylococcus aureus; settings: for MBC, S. aureus mprF mutant, −C: absence of carbonate; for MBC, S. aureus mprF mutant, +C: carbonate present
[4] = test system: Staphylococcus aureus UAMS-1; type: cell-based; settings: clinical isolate

| Compound | MIC, E. coli DC2 (E. coli DC2) [µM] | MIC, E. coli K12 (E. coli K12) [µM] | MIC, WT S. aureus, +C [1] [µM] | MIC, WT S. aureus, −C [1] [µM] | MIC, S. aureus mprF mutant, −C (S. aureus mprF mutant [2]) [µM] | MIC, S. aureus mprF mutant, +C (S. aureus mprF mutant [2]) [µM] | MBC, WT S. aureus, +C (wild type S. aureus) [µM] | MBC, WT S. aureus, −C (wild type S. aureus) [µM] | MBC, S. aureus mprF mutant, −C (S. aureus mprF mutant [3]) [µM] | MBC, S. aureus mprF mutant, +C (S. aureus mprF mutant [3]) [µM] | MIC, Staphylococcus aureus UAMS-1 [4] [µM] |
| --- | --- | --- | --- | --- | --- | --- | --- | --- | --- | --- | --- |
| CC[C@H](C)[C@H](NC(=O)[C@H](CCCCN)NC(=O)[C@H](CCC(=O)O)NC(=O)[C@H](CCCCN)NC(=O)[C@H](C)NC(=O)[C@H](CCCCN)NC(=O)[C@H](CCCNC(=N)N)NC(=O)[C@H](Cc1ccccc1)NC(=O)[C@H](Cc1ccccc1)NC(=O)[C@H](CC(=O)O)NC(=O)CNC(=O)[C@H](CC(C)C)NC(=O)[C@@H](N)CC(C)C)C(=O)NCC(=O)N[C@@H](CCCCN)C(=O)N[C@@H](CCC(=O)O)C(=O)N[C@@H](Cc1ccccc1)C(=O)N[C@@H](CCCCN)C(=O)N[C@@H](CCCNC(=N)N)C(=O)N[C@H](C(=O)N[C@H](C(=O)N[C@@H](CCC(N)=O)C(=O)N[C@@H](CCCNC(=N)N)C(=O)N[C@H](C(=O)N[C@@H](CCCCN)C(=O)N[C@@H](CC(=O)O)C(=O)N[C@@H](Cc1ccccc1)C(=O)N[C@@H](CC(C)C)C(=O)N[C@@H](CCCNC(=N)N)C(=O)N[C@@H](CC(N)=O)C(=O)N[C@@H](CC(C)C)C(=O)N[C@H](C(=O)N1CCC[C@H]1C(=O)N[C@@H](CCCNC(=N)N)C(=O)N[C@H](C(=O)N[C@@H](CCC(=O)O)C(=O)N[C@@H](CO)C(=O)O)[C@@H](C)O)C(C)C)[C@@H](C)CC)C(C)C)[C@@H](C)CC [LL-37A9] | 6 (≈ 26.9 µg/mL) |  |  |  |  |  |  |  |  |  |  |
| CC[C@H](C)[C@H](NC(=O)[C@H](CCCCN)NC(=O)[C@H](CCC(=O)O)NC(=O)[C@H](CCCCN)NC(=O)[C@@H](NC(=O)[C@H](CCCCN)NC(=O)[C@H](CCCNC(=N)N)NC(=O)[C@H](Cc1ccccc1)NC(=O)[C@H](Cc1ccccc1)NC(=O)[C@H](CC(=O)O)NC(=O)CNC(=O)[C@H](CC(C)C)NC(=O)[C@@H](N)CC(C)C)C(C)C)C(=O)NCC(=O)N[C@@H](CCCCN)C(=O)N[C@@H](CCC(=O)O)C(=O)N[C@@H](Cc1ccccc1)C(=O)N[C@@H](CCCCN)C(=O)N[C@@H](CCCNC(=N)N)C(=O)N[C@H](C(=O)N[C@H](C(=O)N[C@@H](CCC(N)=O)C(=O)N[C@@H](CCCNC(=N)N)C(=O)N[C@H](C(=O)N[C@@H](CCCCN)C(=O)N[C@@H](CC(=O)O)C(=O)N[C@@H](Cc1ccccc1)C(=O)N[C@@H](CC(C)C)C(=O)N[C@@H](CCCNC(=N)N)C(=O)N[C@@H](CC(N)=O)C(=O)N[C@@H](CC(C)C)C(=O)N[C@H](C(=O)N1CCC[C@H]1C(=O)N[C@@H](CCCNC(=N)N)C(=O)N[C@H](C(=O)N[C@@H](CCC(=O)O)C(=O)N[C@@H](CO)C(=O)O)[C@@H](C)O)C(C)C)[C@@H](C)CC)C(C)C)[C@@H](C)CC [LL-37V9] | 12 (≈ 54.1 µg/mL) |  |  |  |  |  |  |  |  |  |  |
| CC[C@H](C)[C@H](NC(=O)[C@H](CCCCN)NC(=O)[C@H](CCC(=O)O)NC(=O)[C@H](CCCCN)NC(=O)[C@H](CO)NC(=O)[C@H](CCCCN)NC(=O)[C@H](CCCNC(=N)N)NC(=O)[C@H](Cc1ccccc1)NC(=O)[C@H](Cc1ccccc1)NC(=O)[C@H](CC(=O)O)NC(=O)CNC(=O)[C@H](CC(C)C)NC(=O)[C@@H](N)CC(C)C)C(=O)NCC(=O)N[C@@H](CCCCN)C(=O)N[C@@H](CCC(=O)O)C(=O)N[C@@H](Cc1ccccc1)C(=O)N[C@@H](CCCCN)C(=O)N[C@@H](CCCNC(=N)N)C(=O)N[C@H](C(=O)N[C@H](C(=O)N[C@@H](CCC(N)=O)C(=O)N[C@@H](CCCNC(=N)N)C(=O)N[C@H](C(=O)N[C@@H](CCCCN)C(=O)N[C@@H](CC(=O)O)C(=O)N[C@@H](Cc1ccccc1)C(=O)N[C@@H](CC(C)C)C(=O)N[C@@H](CCCNC(=N)N)C(=O)N[C@@H](CC(N)=O)C(=O)N[C@@H](CC(C)C)C(=O)N[C@H](C(=O)N1CCC[C@H]1C(=O)N[C@@H](CCCNC(=N)N)C(=O)N[C@H](C(=O)N[C@@H](CCC(=O)O)C(=O)N[C@@H](CO)C(=O)O)[C@@H](C)O)C(C)C)[C@@H](C)CC)C(C)C)[C@@H](C)CC [LL-37] |  | 5 (≈ 22.5 µg/mL) |  |  |  |  |  |  |  |  |  |
| LLGDFFRKAKEKIGKEFKRIVQR [LL-23A9] | 9 |  | >24 | >24 | 6 | 0.35 to 0.7 | >24 | >24 | 6 to 12 | 6 |  |
| LLGDFFRKSKEKIGKEFKRIVQR [LL-23] | 9 |  | >24 | >24 | 24 | 3 | >24 | >24 | >24 | 12 | > 160 |
| LLGDFFRKVKEKIGKEFKRIVQR [LL-23V9] | 2 |  | 12 | >24 | 6 | 0.35 to 0.7 | >24 | >24 | 3 to 6 | 6 to 12 |  |
